Measured values as given in ChEMBL document CHEMBL1201862, “PubChem BioAssay data set” (2004).
Values belong to the compound of their own block, whether it stands above or below them. Calls of active or inactive are those of the source.

Experiments:
[1] = inhibition of ADAM10 peptide cleavage – biochemical, FRET peptide substrate, recombinant human ADAM10, selectivity assay for ADAM17 exosite inhibitor project, dose response (AID 743259);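 further: ADAM10 enzyme cleaving a FRET peptide substrate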
[2] = biological target: Disintegrin and metalloproteinase domain-containing protein 17 (Homo sapiens, UniProt P78536); assay: exosite inhibitors of ADAM17, dose response, biochemical (AID 743260)
[3] = growth inhibition of PfATP4-mutant resistant parasites – NITD609-resistant line, SYBR Green, dry powder, dose response (AID 1159571); format: functional, cell-based;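 further: parasites synchronized at ring stage by sorbitol before testing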
[4] = P. falciparum Dd2 growth inhibitors, dose response, SYBR Green, cherry-picked samples (AID 1159567); format: functional, cell-based
[5] = growth inhibition of yeast DHODH-expressing 3D7 parasites – SYBR Green, dry powder samples, dose response (AID 1159570); format: functional, cell-based;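 further: parasite growth measured after 72 hours of compound exposure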
[6] = toxicity to human HepG2 hepatoma cells – cell-based, plate reader, dry powder samples, cytotoxicity control, dose response (AID 1159569); format: functional;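 further: inhibitor potency with signal falling toward the positive control level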
[7] = Dd2 malaria parasite growth inhibition potency – SYBR Green, dry powder samples, dose response (AID 1159566); format: functional, cell-based;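 further: potency for growth inhibition with lower SYBR green DNA signal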
[8] = toxicity to human hepatoma HepG2 cells – cell-based, cherry-picked samples, cytotoxicity control, dose response (AID 1159577); format: functional
[9] = biological target: NAD-dependent protein deacylase sirtuin-5, mitochondrial (Homo sapiens, UniProt Q9NXA8); assay: sirtuin-5 deacylation blockers, concentration series – biochemical, fluorescence imaging, cherry-pick, set 5, dose response (AID 720591);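 further: desuccinylation of succinyl peptide AMC substrate read as fluorescence after trypsin release; potency of inhibitors that lower fluorescence and may act on trypsin instead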
[10] = biological target: T1, COUP transcription factor 2 (Homo sapiens, UniProt P24468); assay: Luminescence-based cell-based high throughput dose response assay to identify inhibitors of COUP-TFII (NR2F2).; format: functional;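 further: HEK293 cells transiently cotransfected with COUP-TFII expression vector and reporter; luciferase reporter luminescence driven by COUP-TFII from the pX2-168 reporter plasmid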
T1 sequence (P24468 whole entry): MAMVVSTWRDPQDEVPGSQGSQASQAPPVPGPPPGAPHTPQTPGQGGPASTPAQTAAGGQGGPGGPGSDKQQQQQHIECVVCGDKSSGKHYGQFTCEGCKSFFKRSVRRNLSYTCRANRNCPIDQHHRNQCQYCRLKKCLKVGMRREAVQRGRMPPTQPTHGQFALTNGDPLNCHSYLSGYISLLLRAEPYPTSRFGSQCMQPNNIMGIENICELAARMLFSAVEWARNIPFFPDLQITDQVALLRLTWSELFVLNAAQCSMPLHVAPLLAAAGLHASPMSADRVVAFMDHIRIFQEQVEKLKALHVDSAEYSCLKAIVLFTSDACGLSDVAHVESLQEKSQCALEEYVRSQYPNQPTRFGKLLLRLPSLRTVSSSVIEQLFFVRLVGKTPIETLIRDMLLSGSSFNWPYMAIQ

[11] = HEK-293T viability loss after treatment – luminescence, T-cell screen hits, cytotoxicity control for TCR NF-kB inhibitor project, dose response (AID 489026); format: functional, cell-based;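 further: cells exposed to compound about 14 hours before the viability readout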
Galanin receptor type 3 = biological target: T2, Galanin receptor type 3 (Homo sapiens, UniProt O60755); assay: Fluorescence-based cell-based primary high throughput dose response assay to identify antagonists of the Galanin Receptor 3 (GalR3).; format: functional
T2 sequence (O60755 whole entry): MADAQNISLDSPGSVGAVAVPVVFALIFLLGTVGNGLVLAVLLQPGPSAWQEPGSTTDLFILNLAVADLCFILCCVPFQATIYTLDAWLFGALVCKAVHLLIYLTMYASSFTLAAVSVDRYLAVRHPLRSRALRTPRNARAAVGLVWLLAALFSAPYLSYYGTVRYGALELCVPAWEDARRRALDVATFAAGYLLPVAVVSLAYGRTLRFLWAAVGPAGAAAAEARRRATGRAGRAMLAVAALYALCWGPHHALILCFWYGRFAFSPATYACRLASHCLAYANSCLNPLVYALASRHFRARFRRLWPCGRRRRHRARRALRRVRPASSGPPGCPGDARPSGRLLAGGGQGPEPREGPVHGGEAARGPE

cells = format: functional, cell-based; details: HEK-CNG
INS1 = assay: INS-1E survival protection against cytokine death – cell-based, luminescence, retest, dose response (AID 449756); format: functional; details: Rattus norvegicus;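 further: cell death triggered by IL-1 beta plus TNF-alpha plus IFN-gamma mixture; protective hits raise ATP signal compared with cytokine alone wells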
HEK293 [12] = assay: cells; format: functional, cell-based; details: Homo sapiens
HEK293 [13] = assay: inhibition of NOD1-driven NF-kB reporter – cell-based, luminescence, uHTS, primary screen (AID 1578); format: functional; details: Homo sapiens
BJ [14] = assay: BJ-TERT fibroblast viability loss – cell-based, RAS-independent, luminescence, dose response (AID 1933); format: functional; details: Homo sapiens
BJ [15] = assay: cells; format: functional, cell-based; details: Homo sapiens
BJ [16] = assay: BJ-TERT-LT-ST fibroblast viability loss – cell-based, RAS-independent, luminescence, dose response (AID 1935); format: functional; details: Homo sapiens;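 further: BJ fibroblasts immortalized with TERT plus LT and ST oncogenes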
HEK293 [17] = assay: cells; format: functional, cell-based; details: Homo sapiens; remark: listed apart in the source
Paired box protein Pax-8 = Paired box protein Pax-8 (Homo sapiens, UniProt Q06710); assay: PAX8 transcriptional activity inhibition in RMG-I – RMG-I cells, luciferase, cherry-pick, dose response (AID 687027); format: functional, cell-based;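 further: luciferase reporter driven by Pax8 target thyroperoxidase promoter measured by SteadyGlo luminescence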
HEK293 [18] = assay: NOD2 signaling inhibitors in MDP-stimulated cells, cell-based, uHTS, luminescence (AID 2001); format: functional; details: Homo sapiens
[19] = DRD fibroblast viability loss – cell-based, non-viral oncogenic, luminescence, dose response (AID 1934); format: functional; details: Homo sapiens
[20] = general cell-killing toxicity readout – plate reader, dry powder samples, cytotoxicity control for PAX8 inhibitor project, dose response (AID 743021); format: functional, cell-based
BJ [21] = assay: growth inhibition of engineered Ras-driven BJ cells – cell-based, alamar blue fluorescence, cherrypicked samples, dose response (AID 2631); format: functional; details: Homo sapiens;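 further: confirmatory dose-response assay in RAS-dependent BJ fibroblasts engineered with TERT, LT and ST, with cytotoxicity read by fluorescence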
[22] = biological target: Mitogen-activated protein kinase 10 (Homo sapiens, UniProt P53779); assay: Dose response biochemical screening assay for inhibitors of c-Jun N-Terminal Kinase 3 (JNK3). [Related pubchem assays: 746 ]
[23] = T. cruzi growth inhibition in host cells, dose response, cell-based, plate reader, dry powder, set 2 (AID 652275); format: functional
Albumin = Albumin (Bos taurus, UniProt P02769); assay: Counterscreen for inhibitors of T-cell receptor (TCR)-CD3 interaction: Fluorescence-based biochemical high throughput dose response assay to identify inhibitors of T-cell receptor (TCR)-CD3 interaction using a TAMRA-labeled BSA probe.; format: functional
[24] = biological target: T3, RNA-binding protein pos-1 (Caenorhabditis elegans, UniProt G5EF15); assay: disruptors of C. elegans POS-1 RNA interaction – biochemical, fluorescence polarization, dose response (AID 1964);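 further: purified POS-1 fused to maltose binding protein made in E. coli; potency of compounds blocking POS-1 binding to fluorescent RNA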
T3 sequence (G5EF15 whole entry): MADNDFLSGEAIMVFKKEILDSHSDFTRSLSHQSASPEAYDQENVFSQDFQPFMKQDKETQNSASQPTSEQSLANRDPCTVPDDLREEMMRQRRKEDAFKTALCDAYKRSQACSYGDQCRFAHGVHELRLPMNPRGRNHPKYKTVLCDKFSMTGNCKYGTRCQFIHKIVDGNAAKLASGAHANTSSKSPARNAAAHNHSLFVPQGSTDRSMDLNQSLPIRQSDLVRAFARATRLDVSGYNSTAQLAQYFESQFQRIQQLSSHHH

[25] = biological target: T4, Zinc finger protein mex-5 (Caenorhabditis elegans, UniProt Q9XUB2); assay: potency of MEX-5 RNA-binding blockers – biochemical, C. elegans, fluorescence polarization, dose response (AID 1960)
T4 sequence (Q9XUB2 whole entry): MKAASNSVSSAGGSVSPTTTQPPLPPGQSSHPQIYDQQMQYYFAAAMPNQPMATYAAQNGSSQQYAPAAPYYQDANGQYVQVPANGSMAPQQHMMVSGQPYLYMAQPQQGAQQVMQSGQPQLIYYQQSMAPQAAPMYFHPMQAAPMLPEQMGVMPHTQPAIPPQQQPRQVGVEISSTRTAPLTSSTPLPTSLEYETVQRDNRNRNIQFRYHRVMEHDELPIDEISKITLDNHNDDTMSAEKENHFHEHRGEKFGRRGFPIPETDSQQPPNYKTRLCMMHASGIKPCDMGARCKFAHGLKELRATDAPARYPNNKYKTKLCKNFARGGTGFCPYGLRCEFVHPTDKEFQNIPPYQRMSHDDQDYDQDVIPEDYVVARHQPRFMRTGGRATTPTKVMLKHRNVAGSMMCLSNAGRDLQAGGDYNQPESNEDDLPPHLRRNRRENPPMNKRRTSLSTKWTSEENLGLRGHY

Genome polyprotein = Genome polyprotein (dengue virus type 2, UniProt P29990); assay: flavivirus cap methylation enzyme inhibition – biochemical, confirmation dose response, primary screen (AID 588689); format: functional
Chain of Genome polyprotein (P29990 2492-3391 limits assumed): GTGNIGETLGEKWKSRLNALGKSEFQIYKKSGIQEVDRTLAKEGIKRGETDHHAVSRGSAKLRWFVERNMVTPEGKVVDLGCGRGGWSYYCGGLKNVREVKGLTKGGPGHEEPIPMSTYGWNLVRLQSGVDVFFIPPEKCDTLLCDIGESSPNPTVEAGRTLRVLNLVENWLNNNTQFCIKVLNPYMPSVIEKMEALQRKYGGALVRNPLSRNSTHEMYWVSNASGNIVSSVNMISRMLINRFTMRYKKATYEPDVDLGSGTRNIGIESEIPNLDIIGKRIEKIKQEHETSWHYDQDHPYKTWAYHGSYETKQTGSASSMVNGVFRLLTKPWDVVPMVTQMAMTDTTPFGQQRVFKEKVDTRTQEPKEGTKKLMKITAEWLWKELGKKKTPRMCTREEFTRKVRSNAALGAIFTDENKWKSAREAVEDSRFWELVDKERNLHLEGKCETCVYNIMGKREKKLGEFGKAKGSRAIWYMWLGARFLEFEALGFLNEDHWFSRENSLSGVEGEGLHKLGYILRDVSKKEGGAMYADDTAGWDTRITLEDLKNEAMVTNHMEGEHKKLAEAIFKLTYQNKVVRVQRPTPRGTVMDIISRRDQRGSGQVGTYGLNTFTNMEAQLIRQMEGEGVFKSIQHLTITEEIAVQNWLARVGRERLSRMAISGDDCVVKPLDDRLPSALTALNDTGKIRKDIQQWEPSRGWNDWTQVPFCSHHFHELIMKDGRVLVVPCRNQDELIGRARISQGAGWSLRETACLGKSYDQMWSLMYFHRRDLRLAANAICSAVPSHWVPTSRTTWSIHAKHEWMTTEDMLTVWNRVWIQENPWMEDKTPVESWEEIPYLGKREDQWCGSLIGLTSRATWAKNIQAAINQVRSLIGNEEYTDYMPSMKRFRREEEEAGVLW

Chain of NAD-dependent protein deacylase sirtuin-5, mitochondrial (Q9NXA8 whole entry): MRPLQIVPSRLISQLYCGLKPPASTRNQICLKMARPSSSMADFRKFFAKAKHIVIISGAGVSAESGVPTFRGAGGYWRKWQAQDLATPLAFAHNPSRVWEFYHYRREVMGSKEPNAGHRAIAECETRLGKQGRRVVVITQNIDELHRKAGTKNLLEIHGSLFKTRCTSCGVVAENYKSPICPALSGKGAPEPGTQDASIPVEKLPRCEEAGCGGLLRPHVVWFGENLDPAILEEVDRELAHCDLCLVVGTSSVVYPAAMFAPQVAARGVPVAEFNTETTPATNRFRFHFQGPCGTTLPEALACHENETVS
Chain of Paired box protein Pax-8 (Q06710 whole entry): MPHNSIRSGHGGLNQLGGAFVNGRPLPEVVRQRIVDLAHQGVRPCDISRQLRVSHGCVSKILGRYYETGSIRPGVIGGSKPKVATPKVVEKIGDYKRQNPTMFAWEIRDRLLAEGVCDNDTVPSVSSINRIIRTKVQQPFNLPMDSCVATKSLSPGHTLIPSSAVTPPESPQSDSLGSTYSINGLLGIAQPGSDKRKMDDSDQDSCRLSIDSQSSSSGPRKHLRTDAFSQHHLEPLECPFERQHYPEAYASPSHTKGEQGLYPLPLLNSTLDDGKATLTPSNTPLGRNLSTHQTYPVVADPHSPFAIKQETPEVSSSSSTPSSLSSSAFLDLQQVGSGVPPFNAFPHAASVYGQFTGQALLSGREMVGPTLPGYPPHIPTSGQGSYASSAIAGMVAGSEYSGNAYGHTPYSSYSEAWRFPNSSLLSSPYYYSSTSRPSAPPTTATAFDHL
Chain of Mitogen-activated protein kinase 10 (P53779 whole entry): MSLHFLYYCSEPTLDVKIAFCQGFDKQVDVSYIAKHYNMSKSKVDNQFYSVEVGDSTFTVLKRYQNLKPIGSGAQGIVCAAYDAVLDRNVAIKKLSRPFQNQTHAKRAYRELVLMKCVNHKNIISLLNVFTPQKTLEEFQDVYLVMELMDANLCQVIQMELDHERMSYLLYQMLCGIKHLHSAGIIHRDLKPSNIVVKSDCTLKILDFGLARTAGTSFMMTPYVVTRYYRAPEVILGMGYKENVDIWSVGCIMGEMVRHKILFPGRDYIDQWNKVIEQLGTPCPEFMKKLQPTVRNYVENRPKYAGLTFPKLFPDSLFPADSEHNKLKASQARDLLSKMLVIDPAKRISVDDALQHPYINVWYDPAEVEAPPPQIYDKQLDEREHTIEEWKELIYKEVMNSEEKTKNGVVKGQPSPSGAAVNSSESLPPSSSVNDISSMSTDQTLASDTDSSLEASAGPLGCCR
Chain of Disintegrin and metalloproteinase domain-containing protein 17 (P78536 whole entry, the tested form may be a part): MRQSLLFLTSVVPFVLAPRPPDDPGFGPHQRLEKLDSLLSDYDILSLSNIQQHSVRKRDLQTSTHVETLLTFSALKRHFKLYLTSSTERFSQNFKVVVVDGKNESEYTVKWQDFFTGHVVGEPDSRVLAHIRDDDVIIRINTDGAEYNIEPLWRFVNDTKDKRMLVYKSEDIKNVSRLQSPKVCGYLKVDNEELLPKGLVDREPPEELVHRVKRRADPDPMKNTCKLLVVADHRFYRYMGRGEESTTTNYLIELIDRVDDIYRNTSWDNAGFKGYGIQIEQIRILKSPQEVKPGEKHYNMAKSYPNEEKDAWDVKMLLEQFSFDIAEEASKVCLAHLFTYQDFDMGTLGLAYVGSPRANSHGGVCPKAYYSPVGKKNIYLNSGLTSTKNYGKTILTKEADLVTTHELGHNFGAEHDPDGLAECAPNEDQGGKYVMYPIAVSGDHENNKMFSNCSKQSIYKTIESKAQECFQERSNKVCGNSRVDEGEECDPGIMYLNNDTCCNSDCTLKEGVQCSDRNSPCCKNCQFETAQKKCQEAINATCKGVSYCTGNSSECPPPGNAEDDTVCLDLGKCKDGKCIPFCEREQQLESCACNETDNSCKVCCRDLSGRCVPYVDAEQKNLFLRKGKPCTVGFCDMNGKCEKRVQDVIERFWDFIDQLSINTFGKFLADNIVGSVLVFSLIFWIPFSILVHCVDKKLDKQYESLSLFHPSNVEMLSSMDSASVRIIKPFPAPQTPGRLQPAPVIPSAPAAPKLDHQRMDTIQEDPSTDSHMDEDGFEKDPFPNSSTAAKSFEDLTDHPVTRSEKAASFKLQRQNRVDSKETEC
Chain of Albumin (P02769 whole entry, the tested form may be a part): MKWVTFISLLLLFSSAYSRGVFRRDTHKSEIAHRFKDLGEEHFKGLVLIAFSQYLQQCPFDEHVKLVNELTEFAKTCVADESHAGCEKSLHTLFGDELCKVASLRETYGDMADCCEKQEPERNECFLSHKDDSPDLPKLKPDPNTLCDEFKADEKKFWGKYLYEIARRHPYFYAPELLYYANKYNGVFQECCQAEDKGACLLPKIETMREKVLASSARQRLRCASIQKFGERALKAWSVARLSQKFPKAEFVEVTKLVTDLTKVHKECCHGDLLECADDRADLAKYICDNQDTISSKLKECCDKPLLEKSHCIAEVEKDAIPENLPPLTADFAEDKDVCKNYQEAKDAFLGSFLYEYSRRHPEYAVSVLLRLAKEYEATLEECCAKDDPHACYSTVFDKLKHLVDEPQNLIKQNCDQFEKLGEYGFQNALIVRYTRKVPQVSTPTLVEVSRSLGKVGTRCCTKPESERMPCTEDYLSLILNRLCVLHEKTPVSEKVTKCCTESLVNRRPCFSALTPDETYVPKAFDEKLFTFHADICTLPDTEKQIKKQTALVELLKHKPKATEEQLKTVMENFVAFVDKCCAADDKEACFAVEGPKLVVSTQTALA

IC50 [2]: > 69.5 µM (inactive)
SMILES: CCN1C(=O)/C(=C/c2ccc(C)s2)NC1=S
IC50 [1]: > 69.5 µM (inactive)

SMILES: CCC(=O)N1CC2(CCN(C(=O)Nc3ccccc3F)CC2)c2c([nH]c3cc(OC)ccc23)[C@H]1CO
AC50 [3]: 0.934 µM (active)
AC50 [4]: 1.24 µM (active)
AC50 [5]: 1.2 µM (active)
AC50 [6]: 50.4 µM (active)
AC50 [7]: 1.1 µM (active)

SMILES: CCC(=O)N1[C@H](CO)[C@H](c2ccc(C3=CCCC3)cc2)[C@H]1CNCC1CCCC1
AC50 [8]: > 39 µM (inactive)
AC50 [4]: 3.77 µM (active)

AC50 [9]: > 30 µM (inactive)
SMILES: Cc1cc(S(=O)(=O)Nc2ccc(C(=O)NCC3(N4CCCCC4)CCCCC3)cc2)ccc1F

SMILES: Cc1cc(C)c(CN2CCN(C(=O)Cn3cnc4c(OCc5ccccc5)ncnc43)CC2)c(C)c1
IC50 [10]: 5.99 µM (active)
IC50 [11]: > 80 µM (inactive)
IC50 (Galanin receptor type 3): 2.86 µM (active)
EC50 (cells): > 29.9 µM (inactive)
AC50 (INS1): 3.51 µM (active)

SMILES: COc1ccc(C(C(=O)NC2CCCCC2)N(C(=O)CCl)c2ccc(C)cc2)cc1 (stereo unspecified)
IC50 (HEK293 [12]): 17.5 µM (active)
EC50 (HEK293 [13]): 15.6 µM (active)
EC50 (BJ [14]): 0.84 µM (inconclusive)
EC50 (BJ [15]): 2.63 µM (active)
EC50 (BJ [16]): 6.27 µM (active)
IC50 (HEK293 [17]): 5.75 µM (active)
IC50 [11]: > 80 µM (inactive)
AC50 (Paired box protein Pax-8): 0.533 µM (active)
IC50 (HEK293 [18]): 7.21 µM (active)
EC50 [19]: 0.748 µM (active)
AC50 [20]: 0.827 µM (active)
EC50 (BJ [21]): 9.18 µM (active)

IC50 [22]: 35 µM (not active)
SMILES: CCCc1cc(O)n2c(n1)nc1ccccc12

SMILES: COc1cccc(-c2ccc([C@H]3[C@H](CO)N4CCCCN(C(=O)Cc5ccncc5)C[C@@H]34)cc2)c1
AC50 [23]: 2.13 µM (active)

AC50 [9]: > 30 µM (inactive)
SMILES: CN(C)C(=O)c1cc(C(=O)c2ccc(C(F)(F)F)cc2F)c[nH]1

IC50 (Albumin): > 94.1 µM (inactive)
EC50 [24]: 20.9 µM (active)
EC50 [25]: 12.3 µM (active)
IC50 (Genome polyprotein): 39.4 µM (active)
SMILES: CCC(=O)Nc1ccc2nc3c(O)nc(S)nc3nc2c1

SMILES: C[C@H]1CN([C@@H](C)CO)C(=O)c2cc(C#CCc3ccccc3)cnc2O[C@@H]1CN(C)CC1CCCC1
AC50 [8]: 11.2 µM (active)
AC50 [4]: 4.29 µM (active)
